Source: US20150218212A1, “FLUORINATED EPOXYKETONE-BASED TETRAPEPTIDE COMPOUNDS AND USES THEREOF AS PROTEASOME INHIBITORS” (FLUORINOV PHARMA INC., priority 2012, published 2015)

What follows are compounds tested against T1, chymotrypsin-like (CT-L) proteasome activity (Homo sapiens, UniProt P20618+P28074) (assay: Proteasome enzymatic activity (tumor cell lysates), CT-L, OCI-AML-2). Conditions: OCI-AML-2, mean ± standard deviation.
T1 sequence (P28074 60-263): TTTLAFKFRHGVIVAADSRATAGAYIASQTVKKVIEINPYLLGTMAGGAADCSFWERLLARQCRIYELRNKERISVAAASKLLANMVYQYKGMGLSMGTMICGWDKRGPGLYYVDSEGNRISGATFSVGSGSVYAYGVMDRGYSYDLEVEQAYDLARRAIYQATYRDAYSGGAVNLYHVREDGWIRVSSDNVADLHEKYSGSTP
T1 sequence (P20618 29-241): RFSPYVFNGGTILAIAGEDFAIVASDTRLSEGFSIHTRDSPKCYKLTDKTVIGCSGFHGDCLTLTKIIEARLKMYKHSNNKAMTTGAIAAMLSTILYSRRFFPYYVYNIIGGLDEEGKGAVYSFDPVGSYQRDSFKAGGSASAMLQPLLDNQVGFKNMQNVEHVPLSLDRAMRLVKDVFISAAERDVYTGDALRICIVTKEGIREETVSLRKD
Format: biochemical
Experimental: Human multiple myeloma cell lines 8226, H929, JJN3, KMH11, KMS11, KMS18, LP1, MM1S, OPM2 and U266 were grown in Iscove modified Dulbecco's medium (IMDM). Human leukemia cell lines K562, OCI-AML2 and U937 were cultured in RPMI-1640 medium. Primary peripheral blood mononuclear cells were isolated from multiple myeloma patients by Ficoll density gradient centrifugation and bone marrow aspirates were obtained from multiple myeloma patients at the Princess Margaret Cancer Centre of the University Health Network (UHN; Toronto, ON, Canada). Primary cells were cultured in IMDM. The collection and use of human tissue for this study was approved by the UHN institutional ethics review board. All cell culture media were obtained from the Ontario Cancer Institute Tissue Culture Media Facility (Toronto, ON, Canada) and were supplemented with 10% fetal calf serum, […] (Hyclone, Logan, Utah). All cells were grown in a humidified incubator at 37° C. with 5% CO2.
Cells were harvested by centrifugation at 1,200 rpm at room temperature. Cell pellets were washed with PBS (phosphate buffered saline) and lysed with assay lysis buffer (50 mM HEPES (N-2-hydroxyethylpiperazine-N′-2-ethanesulfonic acid), pH 7.5; 150 mM NaCl; 1% Triton X-100; 2 mM ATP). Cell lysates were incubated on ice for 30 minutes, mixed by vortex every 5 minutes, and then centrifuged at 12,000 g for 10 minutes. The supernatant was transferred to a 96-well plate. For each assay, 10 μg of total protein were incubated for 1 hour at 37° C. with increasing concentrations (1 nM to 10 μM) of test compound diluted in assay buffer (50 mM tris-HCl (tris(hydroxymethyl)aminomethane-HCl), pH 7.5; 150 mM NaCl). DMSO alone was used as a control in every assay plate. After incubation, a specific fluorogenic proteasome substrate was added to each assay reaction at a final concentration of 40 μM in a total volume of 100 μL. N-Succinyl-Leu-Leu-Val-Tyr-7-amino-4-methylcoumarin (Suc-Leu-Leu-Val-Tyr-AMC) was used for measuring chymotrypsin-like (CT-L) activity, t-butoxycarbonyl-Leu-Arg-Arg-7-amino-4-methylcoumarin (Boc-Leu-Arg-Arg-AMC) for trypsin-like (T-L) activity, and benzyloxycarbonyl-L-leucyl-L-leucyl-L-glutamyl-7-amino-4-methylcoumarin (Z-Leu-Leu-Glu-AMC) for caspase-like (C-L) activity. The excitation wavelength was set at 360 nm and the fluorescence emission wavelength of AMC was detected at 460 nm. The fluorescence of free AMC released during the enzymatic reaction was measured with a SpectraMax M5 fluorescent spectrophotometric plate reader (Molecular Devices, Sunnyvale, Calif.). AMC release rate was measured at 37° C. in a kinetic mode, recording every 5 minutes for 30 minutes. Experiments were performed in triplicate and repeated at least twice.
Table 8 summarizes the data of representative compounds of Formula I for cell viability and CT-L proteasome activity with OCI-AML-2 and KMS-11 cell lines.
`CC(C)C[C@H](NC(=O)[C@H](COC(F)F)NC(=O)CN1CCOCC1)C(=O)N[C@@H](COC(F)F)C(=O)N[C@@H](CC(C)C)C(=O)[C@@]1(C)CO1` [Example 1, (2S)—N-[(1S)-1-(difluoromethoxymethyl)-2-[[(1S)-3-methyl-1-[(2R)-2-methyloxirane-2-carbonyl]butyl]amino]-2-oxo-ethyl]-2-[[(2S)-3-(difluoromethoxy)-2-[(2-morpholinoacetyl)amino]propanoyl]amino]-4-methyl-pentanamide] gave an IC50 of 39 ± 1.24 nM.
`CC(C)C[C@H](NC(=O)[C@H](COC(F)F)NC(=O)CN1CCOCC1)C(=O)N[C@@H](Cc1ccccc1)C(=O)N[C@@H](CC(C)C)C(=O)[C@@]1(C)CO1` [Example 2, (2S)-N-[(1S)-1-benzyl-2-[[(1S)-3-methyl-1-[(2R)-2-methyloxirane-2-carbonyl]butyl]-amino]-2-oxo-ethyl]-2-[[(2S)-3-(difluoromethoxy)-2-[(2-morpholinoacetyl)amino]propanoyl]amino]-4-methyl-pentanamide] was tested, and the IC50 was 41.2 ± 3.19 nM.
With `CC(C)C[C@H](NC(=O)[C@H](COC(F)F)NC(=O)CN1CCOCC1)C(=O)N[C@@H](Cc1ccccc1)C(=O)N[C@@H](Cc1ccccc1)C(=O)[C@@]1(C)CO1` [Example 3, (2S)-N-[(1S)-1-benzyl-2-[[(1S)-1-benzyl-2-[(2R)-2-methyloxiran-2-yl]-2-oxo-ethyl]amino]-2-oxo-ethyl]-2-[[(2S)-3-(difluoromethoxy)-2-[(2-morpholinoacetyl)-amino]propanoyl]amino]-4-methyl-pentan-amide] the IC50 was 30 ± 2.44 nM.
Work on `CC(C)C[C@H](NC(=O)[C@H](COC(F)F)NC(=O)CN1CCOCC1)C(=O)N[C@@H](COC(F)F)C(=O)N[C@@H](Cc1ccccc1)C(=O)[C@@]1(C)CO1` [Example 4, (2S)-N-[(1S)-2-[[(1S)-1-benzyl-2-[(2R)-2-methyloxiran-2-yl]-2-oxo-ethyl]amino]-1-(difluoromethoxymethyl)-2-oxo-ethyl]-2-[[(2S)-3-(difluoromethoxy)-2-[(2-mor-pholinoacetyl)amino]propanoyl]amino]-4 methyl-pentanamide] yielded an IC50 of 20.9 ± 0.91 nM.
Work on `CC(C)C[C@H](NC(=O)[C@H](COC(F)F)NC(=O)[C@H](COC(F)F)NC(=O)[C@H](CCc1ccccc1)NC(=O)CN1CCOCC1)C(=O)[C@@]1(C)CO1` [Example 7, (2S)-N-[(1S)-1-(difluoromethoxymethyl)-2-[[(1S)-1-(difluoromethoxymethyl)-2-[[(1S)-3-methyl-1-[(2R)-2-methyloxirane-2-carbo-nyl]butyl]amino]-2-oxo-ethyl]amino]-2-oxo-ethyl]-2-[(2-morpholinoacetyl)amino]-4-phenyl-butanamide] yielded an IC50 of 24.7 ± 9.6 nM.
`CC(C)C[C@H](NC(=O)[C@H](Cc1ccccc1)NC(=O)[C@H](COC(F)F)NC(=O)[C@H](COC(F)F)NC(=O)CN1CCOCC1)C(=O)[C@@]1(C)CO1` [Example 11, (2S)-2-[[(2S)-3-(difluoromethoxy)-2-[[(2S)-3-(difluoromethoxy)-2-[(2-morpholinoacetyl)-amino]propanoyl]amino]propanoyl]amino]-N-[(1S)-3-methyl-1-[(2R)-2-methyloxirane-2-carbonyl]butyl]-3-phenyl-propanamide] was tested, and the IC50 was 30.5 ± 3.9 nM.
Compound `CC(C)C[C@H](NC(=O)[C@H](COC(F)F)NC(=O)[C@H](COC(F)F)NC(=O)[C@H](COC(F)F)NC(=O)CN1CCOCC1)C(=O)[C@@]1(C)CO1` [Example 17, (2S)-3-(difluoromethoxy)-N-[(1S)-1-(difluoromethoxymethyl)-2-[[(1S)-1-(difluoro-methoxymethyl)-2-[[(1S)-3-methyl-1-[(2R)-2-methyloxirane-2-carbonyl]butyl]amino]-2-oxo-ethyl]amino]-2-oxo-ethyl]-2-[(2-mor-pholinoacetyl)amino]-propanamide] has an IC50 of 58.3 ± 3.11 nM.
